Results on four compounds are retold here after paper PMC3990583 (PLoS ONE, 2014).

pIC50: −log10 of the molar value. Where only a bound is given, the exact number is not on record here.

Assay [1] deals with CK2-mediated phosphorylation of AKT at S129. Put plainly: Western blot of AKT(S129) phosphorylation (CK2-specific site) in 293T cells. Particulars: 12 hours. Format: cell-based, human. (In western blotting, separated proteins are transferred to a membrane and probed.)
The test system of assay [2] is SR protein phosphorylation. The experiment in a line: Western blot of phosphorylated SR proteins (mAb 1H4) in 293T cells. Particulars: for alteration of SR protein phosphorylation: 100 µM, 12 hour, Figure S5. Type of assay: cell-based, human.
Assay [3] has as its system 293T cells. The experiment in a line: RT-PCR analysis of alternative pre-mRNA splicing in 293T cells. Format: cell-based, human. The method, then: Cells (293T, Huh7, and HepG2) were cultured in Dulbecco's modified Eagle's medium (DMEM) containing 10% fetal bovine serum (FBS; Hyclone) supplemented with 1% penicillin and streptomycin. […] The 293T cells were transfected in 6-well plates with siRNAs (Bioneer) at a final concentration of 100 nM using Lipofectamine RNAiMax (Invitrogen) according to the manufacturer's instructions.
(§1) To analyze the effect of compounds on pre-mRNA splicing, 293T, Huh7, and HepG2 cells were treated with the indicated concentrations. Total RNAs were extracted using the TRIzol reagent (Invitrogen) followed by cDNA synthesis using the Omniscript RT kit (Qiagen) and an oligo-dT primer. PCR was performed at 95°C for 30 s, 55°C for 30 s, and 72°C for 1 min for 35 cycles using GoTaq Green Master Mix (Promega). Quantitative real-time PCR analysis was performed using the BioRad IQ SYBR Green Supermix. All gene expression experiments were performed independently at least twice.
(§2) The cDNA was synthesized and further processed for exon array as described in Materials and Methods. All experiments were performed three times, and representative heat maps of selected transcripts from the exon arrays are shown. Selected exons for each mRNA are highlighted with black underlines. (B) RT-PCR analysis was performed for the ELL2, SPAST, QRSL1, PRPSAP2, CPEB1, USP38, TRIP4, CTDSPL2, WDFY1 and ZCCHC2 genes with the same RNA used for the exon arrays. The exonic structure of the RT-PCR products and the exonic location of PCR primers are indicated with tandem rectangles and arrowheads, respectively. PCR products were quantified using ImageJ software, and the ratios of skipped product (skipped/total PCR product) were calculated.
Total levels of AKT were also monitored as a control. hnRNP A1 was used as a loading control. (B) Alternatively spliced CK2 α′, ELL2, CPEB1, PRPSAP2, and QRSL1 mRNAs were examined by RT-PCR. PCR products of normal and alternatively spliced isoforms are denoted by black arrowheads. An extra PCR product of the QRSL1 gene appeared in TBB-treated samples and is denoted by an asterisk. All experiments were performed twice, and representative data for each are presented.

For assay [4], the system named is 293T cells. Put plainly: Quantitative real-time PCR of CK2 α′ mRNA levels in 293T cells. Format: cell-based, human. As to conditions: qPCR, primers to exon 7, Figure S1. On the procedure: as §1
Figure S1. […] Quantitative real-time PCR was performed with total RNA from DMSO- and CX-4945-treated 293T cells. The amount of normal CK2 α’ mRNA was measured using primers corresponding to exon 6, and the total amount of normal CK2 α’ mRNA and the smaller-sized CK2 α’ mRNA was measured using primers corresponding to exon 7. The values for DMSO-treated samples were set to 1, and the relative amounts were calculated. The average and SD values were determined from three independent experiments.
On the technique in general: Quantitative PCR measures a nucleic acid by following its amplification.

Assay [5] concerns Clks. The experiment in a line: In vitro kinase assays (Millipore), CX-4945 compared with TG-003 on Clks. Format: biochemical, human. Particulars: Figure S6. The method, then:
All experiments were performed twice.

The target of assay [6] is SRPKs (SRPK1 and SRPK2). The experiment in a line: In vitro kinase assays, SRPK family as a whole. Format: biochemical, human.
The target in assay [7] is recombinant human Clk3 (Homo sapiens, UniProt P49761). The experiment in a line: In vitro kinase assay (Life Technologies), Clk3. Format: biochemical.
Sequence of recombinant human Clk3 (P49761 whole entry): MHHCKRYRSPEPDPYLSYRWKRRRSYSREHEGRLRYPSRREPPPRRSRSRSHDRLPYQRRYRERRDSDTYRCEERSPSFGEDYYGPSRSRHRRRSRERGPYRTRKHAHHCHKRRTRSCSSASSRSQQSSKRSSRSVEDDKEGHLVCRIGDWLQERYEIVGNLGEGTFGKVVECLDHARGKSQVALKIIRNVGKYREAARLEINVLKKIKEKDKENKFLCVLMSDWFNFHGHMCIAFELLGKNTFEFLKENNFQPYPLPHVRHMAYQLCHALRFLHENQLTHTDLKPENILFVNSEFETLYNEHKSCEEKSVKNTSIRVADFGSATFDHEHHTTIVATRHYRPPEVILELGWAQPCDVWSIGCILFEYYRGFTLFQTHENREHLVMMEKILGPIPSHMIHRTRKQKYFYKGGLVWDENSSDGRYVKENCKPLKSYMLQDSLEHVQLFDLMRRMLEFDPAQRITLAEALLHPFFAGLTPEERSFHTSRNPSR
Assay [8] concerns Huh7 cells. Put plainly: RT-PCR of Bcl-X and RON alternative splicing in Huh7 cells. Type of assay: cell-based, human. Particulars: 12 hours. On the procedure:
as §1

Assay [9] has as its system HepG2 cells. Put plainly: Quantitative real-time PCR of gluconeogenic genes in HepG2 cells. Particulars: 12 hours.
Assay [10] deals with 293T cells. The experiment in a line: Affymetrix exon array, transcriptome-wide splicing in 293T cells. Format: cell-based, human. As to conditions: 10 µM, 12 hours. The method, then:
The fragmented and end-labeled single-stranded cDNAs were prepared and hybridized to Affymetrix-GeneChip Human Exon 1.0 ST arrays (Affymetrix). Affymetrix Expression Console Software was used to perform quality assessment. Affymetrix exon array data was analyzed using GeneSpring 12.6 inclusive of GX (Agilent Technologies). Three independent experimental samples were examined.
Transcriptome analysis with the Affymetrix GeneChip Human Exon 1.0 ST Array, which contains multiple probes per exon, allowed us to search for variations at the exon level. […] Further analysis characterized the 8,968 affected exons into 1,555 included exons and 7,413 skipped exons. To validate this observation, we randomly chose 15 exons from those affected by more than 2-fold and examined alterations in alternative splicing using RT-PCR of the same total RNAs used in the exon array experiments. Representative mRNAs containing selected exons are illustrated by heat maps, and all of the selected exons were denoted by black underlines (Figure 2A). […] Different exons are commonly affected differentially by a stimulus or splicing inhibition, depending on cis-acting elements on exon/intron and activities of trans-acting factors.
as §2

Assay [11] deals with Clks (Clk1, Clk2, and Clk3). The experiment in a line: In vitro kinase assays, Clk family as a whole. Format: biochemical, human. As to conditions: range over Clk1, Clk2, Clk3; read-out: IC50 on Clks (all three Clks, Clk1-3).
Assay [12] has as its target recombinant human SRPK1 (Homo sapiens, UniProt Q96SB4). The experiment in a line: In vitro kinase assay (Life Technologies), SRPK1. Format: biochemical. As to conditions: two independent assays.
Assay [13] deals with recombinant human SRPK2 (Homo sapiens, UniProt P78362). Put plainly: In vitro kinase assay (Life Technologies), SRPK2. Format: biochemical. As to conditions: two independent assays.
Sequence of recombinant human SRPK2 (P78362 whole entry): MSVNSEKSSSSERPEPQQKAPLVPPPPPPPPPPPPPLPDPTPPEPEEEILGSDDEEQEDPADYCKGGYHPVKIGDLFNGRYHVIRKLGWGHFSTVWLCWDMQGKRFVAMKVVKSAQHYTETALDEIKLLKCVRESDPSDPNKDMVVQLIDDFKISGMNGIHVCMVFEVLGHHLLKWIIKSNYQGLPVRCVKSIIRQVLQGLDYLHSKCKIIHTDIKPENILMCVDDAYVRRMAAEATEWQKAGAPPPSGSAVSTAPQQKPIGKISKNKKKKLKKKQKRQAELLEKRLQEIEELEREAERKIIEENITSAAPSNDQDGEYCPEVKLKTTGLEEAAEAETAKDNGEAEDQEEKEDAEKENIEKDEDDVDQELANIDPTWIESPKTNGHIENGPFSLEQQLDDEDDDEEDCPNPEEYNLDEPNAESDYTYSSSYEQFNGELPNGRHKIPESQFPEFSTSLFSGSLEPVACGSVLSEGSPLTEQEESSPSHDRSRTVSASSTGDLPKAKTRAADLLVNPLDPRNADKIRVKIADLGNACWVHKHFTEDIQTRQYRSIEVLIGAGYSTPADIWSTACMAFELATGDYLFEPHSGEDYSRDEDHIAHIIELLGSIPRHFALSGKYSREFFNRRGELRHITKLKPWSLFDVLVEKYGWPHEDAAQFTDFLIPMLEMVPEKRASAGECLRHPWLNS
Assay [14] concerns Clk1 and Clk4 over Clk2 and Clk3. Further details: method as in PMID 15010457. Particulars: cited from earlier work.

Sequence of recombinant human SRPK1 (Q96SB4 whole entry): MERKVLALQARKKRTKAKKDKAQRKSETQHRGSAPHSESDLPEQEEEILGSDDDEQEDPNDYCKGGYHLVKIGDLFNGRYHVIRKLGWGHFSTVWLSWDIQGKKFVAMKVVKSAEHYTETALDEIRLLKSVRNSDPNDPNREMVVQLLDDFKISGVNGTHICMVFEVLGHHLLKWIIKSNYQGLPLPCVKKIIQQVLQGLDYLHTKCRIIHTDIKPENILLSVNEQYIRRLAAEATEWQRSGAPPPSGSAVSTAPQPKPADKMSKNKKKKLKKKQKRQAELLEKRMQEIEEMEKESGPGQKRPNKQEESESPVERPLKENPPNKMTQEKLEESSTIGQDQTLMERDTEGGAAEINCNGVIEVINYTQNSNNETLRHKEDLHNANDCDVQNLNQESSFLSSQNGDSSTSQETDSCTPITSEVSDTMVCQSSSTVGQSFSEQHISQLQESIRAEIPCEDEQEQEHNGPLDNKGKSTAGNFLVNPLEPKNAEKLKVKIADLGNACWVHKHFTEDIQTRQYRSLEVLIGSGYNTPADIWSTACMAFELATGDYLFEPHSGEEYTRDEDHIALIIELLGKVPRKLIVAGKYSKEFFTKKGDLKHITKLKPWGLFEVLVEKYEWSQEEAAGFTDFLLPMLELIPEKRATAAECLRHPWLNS

On to `O=C(O)/C=C/c1cc(Br)c(Br)c(Br)c1Br` [TBCA, tetrabromocinnamic acid], for which the “CK2-mediated phosphorylation of AKT at S129” value (“CK2-mediated phosphorylation” below) in [1] (100 µM) was “efficiently blocked”. The “alteration of SR protein phosphorylation” value in [2] was “did not induce the alteration”. In assay [3] (100 µM, 12 hours), the “changes in alternative splicing of selected genes (CK2 α′, ELL2, CPEB1, PRPSAP2, QRSL1)” value is “negligible effect”.
Take `O=C(O)c1ccc2c(c1)nc(Nc1cccc(Cl)c1)c1ccncc12` [CX-4945]: in assay [4], the “total amount of normal CK2 α′ and smaller-sized CK2 α′ mRNA” value is listed as “not altered”. Moreover, the “overall efficacies on Clks compared with TG-003” value in assay [5] is given as “much stronger than those of TG-003”. Also, the pIC50 in [6] was less than 6.00; in assay [7] it was 7.05; in [11], 7.05 to 8.52; in assay [12], 5.91; in [13] it was 5.95. Besides, the “normal alternative splicing of Bcl-X and RON pre-mRNAs” value in assay [8] is “alteration of normal alternative splicing”. Besides, the “G6Pase and PEPCK gene expression” value in [9] was “induced”. Besides, the “included exons among the affected exons” value in assay [10] was 1,555 exons. For the same compound, the “skipped exons among the affected exons” value in assay [10] is recorded as 7,413 exons. Moreover, the “genes affected at the whole-transcript level” value in assay [10] (82 out of 18,673 genes) is on record as 0.44%. Besides, the “CK2-mediated phosphorylation” value in assay [1] (10 µM) is reported as “efficiently blocked”. Also, in assay [2] (1 µM CX-4945 versus 10 µM TG-003, 1 hour), the “regulatory efficacy on SR protein phosphorylation compared with TG-003” value is listed as “stronger than that of TG-003”. Also, the “levels of phosphorylated SRSF4, SRSF6, SRSF5, and SRSF1” value in assay [2] (1 and 10 µM, 1 hour) was “considerably decreased”. Moreover, in assay [2] (1 and 10 µM, 1 hour), the “phosphorylation of SRSF3” value is recorded as “not affected”. Moreover, the “upper band of phospho-SRSF6 (hyperphosphorylated SRSF6)” value in [2] (1 and 10 µM, 1 hour) is reported as “dramatically increased”. For the same compound, the “dose dependence of effect on phosphorylation of SR proteins” value in assay [2] (1 versus 10 µM, 1 hour) was “dose-dependent”. Further, in assay [3] (10 µM, 12 hours, compared with DMSO), the “amount of PCR product corresponding to normal CK2 α′” value is “reduced”. In addition, the “splicing of Clk1/Sty pre-mRNA” value in [3] (12 hours, 293T) was “changes in splicing”. In addition, in [3] (time course following exposure, 293T), the “time of appearance of new product CK2 α′△ (exon6-skipped)” value was “as early as 2 or 3”.
With `CCN1/C(=C/C(C)=O)Sc2ccc(OC)cc21` [TG-003], the “preferential efficacy on Clk1 and Clk4 over Clk2 and Clk3” value in assay [14] is “at least 5 fold”.
As for `Brc1c(Br)c(Br)c2[nH]nnc2c1Br` [TBB, 4,5,6,7-tetrabromobenzotriazole], the “CK2-mediated phosphorylation” value in [1] (100 µM) is “efficiently blocked”. Also, the “alteration of SR protein phosphorylation” value in [2] is “did not induce the alteration”. In assay [3] (100 µM, 12 hours), the “changes in alternative splicing of selected genes (CK2 α′, ELL2, CPEB1, PRPSAP2, QRSL1)” value was “negligible effect” and the “extra PCR product of QRSL1 (cryptic splicing, 3′ part of exon 11)” value is “induced the appearance of an additional PCR product”.

The pIC50 is the negative decadic logarithm of the IC50, by convention in mol/L.
